Test results from patent US8389513B2, “2-amino-5,5-difluoro-5,6-dihydro-4H-[1,3]oxazin-4-yl)-phenyl]-amides” (Hoffmann-La Roche Inc., priority 2009, dated 2013).

What was measured:
[1] = target: T1, recombinant human cathepsin E (Homo sapiens, UniProt P14091); experiment: Cathepsin E fluorescent substrate kinetic assay; format: biochemical; settings: pH 4.5
T1 construct: purchased R&D Systems
T1 sequence (P14091 54-396): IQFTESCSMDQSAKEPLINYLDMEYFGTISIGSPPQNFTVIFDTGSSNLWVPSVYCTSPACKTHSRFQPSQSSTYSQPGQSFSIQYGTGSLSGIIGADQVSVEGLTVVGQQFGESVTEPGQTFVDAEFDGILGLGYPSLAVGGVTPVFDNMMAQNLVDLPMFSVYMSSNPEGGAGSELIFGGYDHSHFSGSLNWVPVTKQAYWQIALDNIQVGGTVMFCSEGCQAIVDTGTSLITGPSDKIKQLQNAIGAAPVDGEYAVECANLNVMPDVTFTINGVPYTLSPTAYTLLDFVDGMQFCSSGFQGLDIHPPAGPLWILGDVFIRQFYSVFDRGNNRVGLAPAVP
Description: (§1) Cathepsin D and Cathepsin E Fluorescent Substrate Kinetic Assays
The MR121 fluorescence assays described below are based on the fact that MR121 forms a non-fluorescent ground state complex with tryptophan. In solution this formation occurs at millimolar concentrations of tryptophan. The mechanism can be used to design a generic biochemical assay for proteases. […] In absence of protease activity, the substrates remain intact and the MR121 fluorescence is reduced by the high local Trp-concentration. If the substrates are cleaved by the enzymes the MR121 fluorescence is recovered.
The fluorescent substrate cathepsin D and cathepsin E kinetic assays were performed at room temperature in 384-well microtiter plates (black with clear flat bottom, non binding surface plates from Corning) in a final volume of 51 μl. The test compounds were serially diluted in DMSO (15 concentrations, 1/3 dilution steps) and 1 μl of diluted compounds were mixed for 10 min with 40 μl of cathepsin D (from human liver, Calbiochem) diluted in assay buffer (100 mM sodium acetate, 0.05% BSA, pH 5.5; final concentration: 200 nM) or with 40 μl of recombinant human cathepsin E (R&D Systems) diluted in assay buffer (100 mM sodium acetate, 0.05% BSA, pH 4.5; final concentration: 0.01 nM). […] The enzymatic reaction was followed in a plate: vision reader (Perkin Elmer) (excitation wavelength: 630 nm; emission: 695 nm) for at least 30 minutes in a kinetic measurement detecting an increase of MR121 fluorescence during the reaction time. The slope in the linear range of the kinetic was calculated and the IC50 of the test compounds were determined using a four parameter equation for curve fitting.

CYP2D6 = target: T2, CYP2D6 (Homo sapiens, UniProt P10635); experiment: CYP inhibition assay, CYP2D6; format: in vitro ADME; settings: human liver microsomes, dextromethorphan; read-out: CYP IC50 2D6
T2 construct: 0.2 mg/ml pooled human liver microsomes; from tissue; host or cells: pooled human liver microsomes
T2 sequence (P10635 whole entry): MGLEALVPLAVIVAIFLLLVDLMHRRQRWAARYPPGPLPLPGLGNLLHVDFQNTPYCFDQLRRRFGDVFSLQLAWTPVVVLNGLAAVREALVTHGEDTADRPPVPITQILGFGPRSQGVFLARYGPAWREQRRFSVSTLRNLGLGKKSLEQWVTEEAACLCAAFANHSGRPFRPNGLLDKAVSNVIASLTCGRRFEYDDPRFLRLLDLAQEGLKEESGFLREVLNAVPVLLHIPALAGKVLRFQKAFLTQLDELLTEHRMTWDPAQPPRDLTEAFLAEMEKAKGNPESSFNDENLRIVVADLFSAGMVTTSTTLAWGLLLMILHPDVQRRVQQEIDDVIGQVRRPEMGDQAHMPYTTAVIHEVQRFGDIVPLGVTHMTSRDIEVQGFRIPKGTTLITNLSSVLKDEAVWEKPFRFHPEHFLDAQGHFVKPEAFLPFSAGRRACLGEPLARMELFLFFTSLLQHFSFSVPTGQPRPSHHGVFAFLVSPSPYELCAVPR
Description: (§2) Inhibition of cytochromes P450 (CYPs) 2C9, 2D6 and 3A4 was assessed using human liver microsomes and CYP-selective substrate metabolism reactions. 50 μl incubations were made up containing (finally) 0.2 mg/ml pooled human liver microsomes, 5 μM substrate (diclofenac for CYP2C9 [4′ hydroxylase], dextromethorphan for CYP2D6 [O-demethylase] or midazolam for CYP3A4 [1′ hydroxylase]), 0.25 μL DMSO containing test inhibitor and NADPH regenerating system. […] Incubations were prewarmed to 37° C. for 10 minutes before initiation by addition of NADPH regenerating system. Incubations were quenched after 5 minutes (20 minutes for dextromethorphan) by addition of 50 μl cold acetonitrile containing 20 ng/ml 4-OH-diclofenac-13C6, 20 ng/mL dextrorphan-D3 and 20 ng/mL 1-OH-midazolam-D4. Quenched incubates were stored at −20° C. for at least 1 hour before centrifugation (20,000×g, 20 minutes). Supernatants were removed and diluted 1:1 with water prior to analysis using a RapidFire sample injector system and API4000 mass spectrometer. Peak areas for substrate, metabolite and stable-labelled metabolite standard were determined using MS/MS. The peak area ratios between the metabolite generated by the enzymatic reaction and the internal standard were used in subsequent calculations. The percentage of (DMSO) control activity was calculated for each incubate and IC50 values estimated by non-linear regression. Sulfaphenazole, quinidine or ketoconazole were tested in each CYP2C9, CYP2D6 or CYP3A4 inhibition experiment, respectively, to ensure assay sensitivity and reproducibility.

CYP2C9 = target: T3, CYP2C9 (Homo sapiens, UniProt P11712); experiment: CYP inhibition assay, CYP2C9; format: in vitro ADME; settings: human liver microsomes, diclofenac; read-out: CYP IC50 2C9
T3 construct: 0.2 mg/ml pooled human liver microsomes; from tissue; host or cells: pooled human liver microsomes
T3 sequence (P11712 whole entry): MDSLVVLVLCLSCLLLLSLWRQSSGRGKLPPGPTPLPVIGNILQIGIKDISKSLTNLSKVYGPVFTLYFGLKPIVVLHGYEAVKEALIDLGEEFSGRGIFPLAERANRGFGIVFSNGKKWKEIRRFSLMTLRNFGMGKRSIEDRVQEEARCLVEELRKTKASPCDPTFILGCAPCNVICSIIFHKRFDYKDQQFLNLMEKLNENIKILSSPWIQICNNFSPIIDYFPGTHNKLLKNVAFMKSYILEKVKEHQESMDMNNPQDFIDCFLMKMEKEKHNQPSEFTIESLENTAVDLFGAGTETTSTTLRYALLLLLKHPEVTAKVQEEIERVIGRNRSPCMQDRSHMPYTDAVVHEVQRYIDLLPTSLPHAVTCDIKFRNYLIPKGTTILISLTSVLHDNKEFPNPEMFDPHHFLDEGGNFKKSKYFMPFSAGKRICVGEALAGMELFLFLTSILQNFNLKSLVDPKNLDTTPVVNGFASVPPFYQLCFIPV
Description: as §2

[2] = target: T4, cathepsin D (from human liver) (Homo sapiens, UniProt P07339); experiment: Cathepsin D fluorescent substrate kinetic assay; format: biochemical; settings: pH 5.5
T4 construct: cathepsin D (from human liver, Calbiochem); purchased Calbiochem; host or cells: human liver
T4 sequence (P07339 65-412): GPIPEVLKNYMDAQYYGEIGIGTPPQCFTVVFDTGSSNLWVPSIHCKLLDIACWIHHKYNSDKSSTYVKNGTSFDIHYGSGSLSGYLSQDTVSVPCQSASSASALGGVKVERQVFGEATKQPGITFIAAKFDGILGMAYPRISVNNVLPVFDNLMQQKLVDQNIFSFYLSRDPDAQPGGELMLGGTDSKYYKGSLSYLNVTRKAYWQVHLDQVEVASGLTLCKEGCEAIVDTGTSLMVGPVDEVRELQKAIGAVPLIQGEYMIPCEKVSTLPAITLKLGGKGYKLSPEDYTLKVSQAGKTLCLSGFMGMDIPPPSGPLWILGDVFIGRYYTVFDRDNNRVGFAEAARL
Description: as §1
The MR121 fluorescence assays described below are based on the fact that MR121 forms a non-fluorescent ground state complex with tryptophan. In solution this formation occurs at millimolar concentrations of tryptophan. The mechanism can be used to design a generic biochemical assay for proteases. A substrate peptide is labeled at the N-terminus with tryptophan and at the C-terminus with the fluorophore MR121 (for cathepsin D the 10 amino acid peptide […]-MR121 was used; for cathepsin E, MR121-[…] was used). In absence of protease activity, the substrates remain intact and the MR121 fluorescence is reduced by the high local Trp-concentration. If the substrates are cleaved by the enzymes the MR121 fluorescence is recovered.
The fluorescent substrate cathepsin D and cathepsin E kinetic assays were performed at room temperature in 384-well microtiter plates (black with clear flat bottom, non binding surface plates from Corning) in a final volume of 51 μl. The test compounds were serially diluted in DMSO (15 concentrations, 1/3 dilution steps) and 1 μl of diluted compounds were mixed for 10 min with 40 μl of cathepsin D (from human liver, Calbiochem) diluted in assay buffer (100 mM sodium acetate, 0.05% BSA, pH 5.5; final concentration: 200 nM) or with 40 μl of recombinant human cathepsin E (R&D Systems) diluted in assay buffer (100 mM sodium acetate, 0.05% BSA, pH 4.5; final concentration: 0.01 nM). After addition of 10 μl of the cathepsin D substrate […]-MR121 diluted in cathepsin D assay buffer (final concentration: 300 nM) or 10 µl of the cathepsin E substrate MR121-[…] diluted in cathepsin E assay buffer (final concentration: 300 nM), the plates were strongly shaken for 2 minutes. The enzymatic reaction was followed in a plate: vision reader (Perkin Elmer) (excitation wavelength: 630 nm; emission: 695 nm) for at least 30 minutes in a kinetic measurement detecting an increase of MR121 fluorescence during the reaction time. The slope in the linear range of the kinetic was calculated and the IC50 of the test compounds were determined using a four parameter equation for curve fitting.

Which IC50 [1] does the source give for `C[C@]1(c2cc(NC(=O)c3ccc(Cl)cn3)ccc2F)N=C(N)OCC1(F)F` [Example 1, 5-Chloro-pyridine-2-carboxylic acid [3-((R)-2-amino-5,5-difluoro-4-methyl-5,6-dihydro-4H-[1,3]oxazin-4-yl)-4-fluoro-phenyl]-amide] here?
The IC50 was 109 µM.

And the IC50 (CYP2D6)?
Its IC50 is 1 to 10 µM.

And the IC50 (CYP2C9)?
Its IC50 is greater than 10 µM.

What about the IC50 [2] of the same compound?
Its IC50 is greater than 200 µM.

Which IC50 [1] does the source give for `C[C@]1(c2cc(NC(=O)c3ncc(C(F)(F)F)cc3Cl)ccc2F)N=C(N)OCC1(F)F` [Example 5, 3-Chloro-5-trifluoromethyl-pyridine-2-carboxylic acid [3-((R)-2-amino-5,5-difluoro-4-methyl-5,6-dihydro-4H-[1,3]oxazin-4-yl)-4-fluoro-phenyl]-amide] here?
The IC50 was greater than 200 µM.

What about the IC50 (CYP2D6) of the same compound?
The IC50 was 1 to 10 µM.

What about the IC50 [2] of the same compound?
Its IC50 is greater than 200 µM.

How did the IC50 (CYP2D6) turn out when `C[C@]1(c2cc(NC(=O)c3ncc(Cl)cc3Cl)ccc2F)N=C(N)OCC1(F)F` [Example 8, 3,5-Dichloro-pyridine-2-carboxylic acid [3-((R)-2-amino-5,5-difluoro-4-methyl-5,6-dihydro-4H-[1,3]oxazin-4-yl)-4-fluoro-phenyl]-amide] was run?
The IC50 was greater than 10 µM.

And the IC50 (CYP2C9)?
The IC50 was greater than 10 µM.

And the IC50 [2]?
Its IC50 is greater than 170 µM.

For `CC1(C)OC(N)=N[C@](C)(c2cc(NC(=O)c3ncc(C(F)(F)F)cc3Cl)ccc2F)C1(F)F` [Example 20, 3-Chloro-5-trifluoromethyl-pyridine-2-carboxylic acid [3-((R)-2-amino-5,5-difluoro-4,6,6-trimethyl-5,6-dihydro-4H-[1,3]oxazin-4-yl)-4-fluoro-phenyl]-amide], which IC50 [1] is on record?
The IC50 was greater than 200 µM.

What about the IC50 (CYP2D6) of the same compound?
The IC50 was 1 to 10 µM.

And the IC50 (CYP2C9)?
The IC50 was 1 to 10 µM.

And the IC50 [2]?
Its IC50 is greater than 200 µM.

With `CC1(C)OC(N)=N[C@](C)(c2cc(NC(=O)c3ccc(C#N)cn3)ccc2F)C1(F)F` [Example 21, 5-Cyano-pyridine-2-carboxylic acid [3-((R)-2-amino-5,5-difluoro-4,6,6-trimethyl-5,6-dihydro-4H-[1,3]oxazin-4-yl)-4-fluoro-phenyl]-amide] as the compound, how does the IC50 [1] read?
The IC50 was greater than 200 µM.

What about the IC50 (CYP2D6) of the same compound?
The IC50 was greater than 10 µM.

What about the IC50 (CYP2C9) of the same compound?
The IC50 was greater than 10 µM.

And the IC50 [2]?
Its IC50 is greater than 200 µM.

For `CC1(C)OC(N)=N[C@](C)(c2cc(NC(=O)c3ncc(C#N)cc3Cl)ccc2F)C1(F)F` [Example 22, 3-Chloro-5-cyano-pyridine-2-carboxylic acid [3-((R)-2-amino-5,5-difluoro-4,6,6-trimethyl-5,6-dihydro-4H-[1,3]oxazin-4-yl)-4-fluoro-phenyl]-amide], which IC50 [1] is on record?
The IC50 was greater than 200 µM.

And the IC50 (CYP2D6)?
Its IC50 is 1 to 10 µM.

And the IC50 (CYP2C9)?
Its IC50 is greater than 10 µM.

And the IC50 [2]?
The IC50 was greater than 200 µM.

What does the source list for `C[C@]1(c2cc(NC(=O)c3ncc(C#N)cc3Cl)ccc2F)N=C(N)OCC1(F)F` [Example 39, 3-Chloro-5-cyano-pyridine-2-carboxylic acid [3-((R)-2-amino-5,5-difluoro-4-methyl-5,6-dihydro-4H-[1,3]oxazin-4-yl)-4-fluoro-phenyl]-amide]?
IC50 [1]: > 200 µM; IC50 (CYP2D6): > 10 µM; IC50 (CYP2C9): > 10 µM; IC50 [2]: > 200 µM
